Several values for one entry are separate records, joined by “and”; a condition that tells them apart may be missing. Equal entries are not always repeated.
System: adjuvant arthritis
Assay: Protection against adjuvant arthritis (AA): inhibition of joint inflammation
Type: in vivo, Lewis rats
Conditions: for % Inhibition of inflammation of adjuvant arthritis: 100 μl, subcutaneously once (14 days before or day 12 after induction of AA), day of maximal inflammation; for inflammation suppressed on day of peak disease: day 26

Compound | % Inhibition of inflammation of adjuvant arthritis (Lewis rats) | other results
CCCCCCCCCCCCCCCCO [Cetyl alcohol] | 66% | –
CCCCCCCC/C=C\CCCCCCCC(=O)OCC [Ethyl oleate] | 92% | –
CCCCCCCC/C=C\CCCCCCCC(=O)OCC(O)CO (stereo not shown) [Glycerol mono-oleate] | 98% | –
CCC=CCC=CC/C=C\CCCCCCCCO [Linolenyl alcohol, cis-9,12,15-octadecatrienol] | 75% | –
CCCCCCCC/C=C\CCCCCCCC(=O)OC [Methyl oleate] | 76% | –
CCCCCCCC/C=C\CCCCCCCCO [Oleyl alcohol, cis-9-octadecenol] | 78%-96% | inflammation suppressed on day of peak disease (10 μl SC once 14 days before induction of AA): 14%; inflammation suppressed on day of peak disease (50 μl SC once 14 days before induction of AA): 61%; inflammation suppressed on day of peak disease (100 μl SC once 14 days before induction of AA): 78%; inflammation suppressed on day of peak disease (500 μl SC once 14 days before induction of AA): 90%; suppression of the inflammation (500 μl oleyl alcohol, two further experiments, Lewis rats): 96% and 91%
CCCCCCCC/C=C\CCCCCCCC(=O)O [oleic acid, cis-9-octadecenoic acid, reference compound] | no effect | –
Mannose monooleate | 95% | –

From US20040247604A1, “Anti-inflamatory fatty alcohols and fatty acid esters useful as antigen carriers” (priority 2001, published 2004)
